Results reported in patent US6849394B2, “Compositions comprising reproductive cell media and methods for using such compositions” (Minitube of America, priority 2002, dated 2005).

System: boar sperm cells
Test: Motility of sperm in boar semen stored at 17° C. in sperm cell medium (Sperm Vison)
Format: cell-based
Method: Compositions comprising sperm cell media were prepared prior to collection by reconstituting Androhep Plus™ and the individual components indicated in the experiments below with microfiltered, deionized (Type I) water. Androhep Plus™ was prepared according to the manufacturer's instructions, except that additional components were added in an amount sufficient to give the concentrations indicated below. Each composition was transferred in 75-ml aliquots to 100-ml plastic bottles commercially available from Minitube of America (Verona, Wis.). Semen was collected (modified full ejaculate) from randomly selected, sexually mature boars (n=3) using the gloved hand technique. Following each collection, each ejaculate was evaluated for sperm cell concentration with an SDM5 photometer with a 546 nm filter and the percentage of motile cells was assessed with Sperm Vison™ using a plain glass slide and a 6 μl drop of semen. Aliquots of semen containing 1×10^9 motile spermatozoa from each of the three boars was transferred into each 75-ml aliquot of composition comprising sperm cell medium at the same temperature (36° C.±1° C.) to give a final concentration of 4×10^7 live sperm cells/ml. Following dispersion of the sperm cells in the composition, each sample was tested for percent motility. Samples were maintained in a semen storage unit at 17° C. The samples were gently mixed periodically during storage. […] Each aliquot was pre-warmed for 30 minutes in a dry block heater at 37° C. prior to motility testing. Motility testing was which was performed using the Sperm Vison™ module in the Prism Program and a plain glass slide pre-warmed to 37° C.

O=C(CO)[C@@H](O)[C@H](O)[C@H](O)CO [fructose]
Mean % motility (Table 7, Androhep Plus + 20 ng/L TGFβ-1, 0.8 ng/L TGFβ-2, 80 ng/L IGF-1, fructose 3.75 g/L, day 1): 94.9%
Mean % motility (Table 7, Androhep Plus + 20 ng/L TGFβ-1, 0.8 ng/L TGFβ-2, 80 ng/L IGF-1, fructose 3.75 g/L, day 5): 88.7%
Mean % motility (Table 7, Androhep Plus + 20 ng/L TGFβ-1, 0.8 ng/L TGFβ-2, 80 ng/L IGF-1, fructose 3.75 g/L, day 10): 88.7%
Mean % motility (Table 7, Androhep Plus + 20 ng/L TGFβ-1, 0.8 ng/L TGFβ-2, 80 ng/L IGF-1, fructose 3.75 g/L, day 20): 89.8%
Mean % motility (Table 7, Androhep Plus + 20 ng/L TGFβ-1, 0.8 ng/L TGFβ-2, 80 ng/L IGF-1, fructose 7.5 g/L, day 1): 96.9%
Mean % motility (Table 7, Androhep Plus + 20 ng/L TGFβ-1, 0.8 ng/L TGFβ-2, 80 ng/L IGF-1, fructose 7.5 g/L, day 5): 91.0%
Mean % motility (Table 7, Androhep Plus + 20 ng/L TGFβ-1, 0.8 ng/L TGFβ-2, 80 ng/L IGF-1, fructose 7.5 g/L, day 10): 88.3%
Mean % motility (Table 7, Androhep Plus + 20 ng/L TGFβ-1, 0.8 ng/L TGFβ-2, 80 ng/L IGF-1, fructose 7.5 g/L, day 20): 89.8%
Mean % motility (Table 7, Androhep Plus + 20 ng/L TGFβ-1, 0.8 ng/L TGFβ-2, 80 ng/L IGF-1, fructose 15 g/L, day 1): 94.3%
Mean % motility (Table 7, Androhep Plus + 20 ng/L TGFβ-1, 0.8 ng/L TGFβ-2, 80 ng/L IGF-1, fructose 15 g/L, day 5): 85.8%
Mean % motility (Table 7, Androhep Plus + 20 ng/L TGFβ-1, 0.8 ng/L TGFβ-2, 80 ng/L IGF-1, fructose 15 g/L, day 10): 89.3%
Mean % motility (Table 7, Androhep Plus + 20 ng/L TGFβ-1, 0.8 ng/L TGFβ-2, 80 ng/L IGF-1, fructose 15 g/L, day 20): 89.3%
Mean % motility (Table 7, Androhep Plus + 20 ng/L TGFβ-1, 0.8 ng/L TGFβ-2, 80 ng/L IGF-1, fructose 30 g/L, day 1): 94.7%
Mean % motility (Table 7, Androhep Plus + 20 ng/L TGFβ-1, 0.8 ng/L TGFβ-2, 80 ng/L IGF-1, fructose 30 g/L, day 5): 54.8%
Mean % motility (Table 7, Androhep Plus + 20 ng/L TGFβ-1, 0.8 ng/L TGFβ-2, 80 ng/L IGF-1, fructose 30 g/L, day 10): 37.4%
Mean % motility (Table 7, Androhep Plus + 20 ng/L TGFβ-1, 0.8 ng/L TGFβ-2, 80 ng/L IGF-1, fructose 30 g/L, day 20): 2.2%

O[C@H]1[C@H](O)[C@@H](O)[C@H](O)[C@@H](O)[C@H]1O [inositol]
Mean % motility (Table 8, Androhep Plus, inositol 0.25 g/L, day 1): 85.7%
Mean % motility (Table 8, Androhep Plus, inositol 0.25 g/L, day 5): 88.0%
Mean % motility (Table 8, Androhep Plus, inositol 0.25 g/L, day 7): 93.3%
Mean % motility (Table 8, Androhep Plus, inositol 0.25 g/L, day 10): 78.3%
Mean % motility (Table 8, Androhep Plus, inositol 0.25 g/L, day 20): 48.0%
Mean % motility (Table 8, Androhep Plus, inositol 0.5 g/L, day 1): 94.7%
Mean % motility (Table 8, Androhep Plus, inositol 0.5 g/L, day 5): 93.3%
Mean % motility (Table 8, Androhep Plus, inositol 0.5 g/L, day 7): 92.7%
Mean % motility (Table 8, Androhep Plus, inositol 0.5 g/L, day 10): 84.3%
Mean % motility (Table 8, Androhep Plus, inositol 0.5 g/L, day 20): 70.3%

O=S(=O)([O-])[O-].[Zn+2] [zinc sulfate]
Mean % motility (Table 6, base Androhep Plus, zinc sulfate 0.05 g/L, day 1): 83.3%
Mean % motility (Table 6, base Androhep Plus, zinc sulfate 0.05 g/L, day 5): 83.7%
Mean % motility (Table 6, base Androhep Plus, zinc sulfate 0.05 g/L, day 10): 87.7%
Mean % motility (Table 6, base Androhep Plus, zinc sulfate 0.05 g/L, day 20): 84.0%
Mean % motility (Table 6, base Androhep Plus, zinc sulfate 0.1 g/L, day 1): 92.0%
Mean % motility (Table 6, base Androhep Plus, zinc sulfate 0.1 g/L, day 5): 93.3%
Mean % motility (Table 6, base Androhep Plus, zinc sulfate 0.1 g/L, day 10): 89.7%
Mean % motility (Table 6, base Androhep Plus, zinc sulfate 0.1 g/L, day 20): 78.3%
Mean % motility (Table 6, base Androhep Plus, zinc sulfate 0.2 g/L, day 1): 94.7%
Mean % motility (Table 6, base Androhep Plus, zinc sulfate 0.2 g/L, day 5): 93.3%
Mean % motility (Table 6, base Androhep Plus, zinc sulfate 0.2 g/L, day 10): 87.7%
Mean % motility (Table 6, base Androhep Plus, zinc sulfate 0.2 g/L, day 20): 87.0%
Mean % motility (Table 6, base Androhep Plus, zinc sulfate 0.5 g/L, day 1): 86.0%
Mean % motility (Table 6, base Androhep Plus, zinc sulfate 0.5 g/L, day 5): 85.7%
Mean % motility (Table 6, base Androhep Plus, zinc sulfate 0.5 g/L, day 10): 89.3%
Mean % motility (Table 6, base Androhep Plus, zinc sulfate 0.5 g/L, day 20): 82.5%
Mean % motility (Table 6, base Androhep Plus, zinc sulfate 1.0 g/L, day 1): 94.0%
Mean % motility (Table 6, base Androhep Plus, zinc sulfate 1.0 g/L, day 5): 73.0%
Mean % motility (Table 6, base Androhep Plus, zinc sulfate 1.0 g/L, day 10): 87.3%
Mean % motility (Table 6, base Androhep Plus, zinc sulfate 1.0 g/L, day 20): 78.3%
